For 26 compounds, IC50 results are on record in patent US11623919B2, “Heterocyclic P2X7 antagonists” (AXXAM S.P.A., priority 2017, dated 2023).

The structures appear in SMILES notation. A value given as a limit tells only on which side of the number the result lay.

The target in experiment [1] is T1, P2X7 receptor (Mus musculus, UniProt Q9Z1M0).
T1 construct: mP2X7 (IC50; nM); other: mP2X7; HEK-293 cells stably transfected with P2X7 receptor, Bz-ATP at EC80, Fluo-8 NW; potency
T1 sequence (Q9Z1M0 1-595): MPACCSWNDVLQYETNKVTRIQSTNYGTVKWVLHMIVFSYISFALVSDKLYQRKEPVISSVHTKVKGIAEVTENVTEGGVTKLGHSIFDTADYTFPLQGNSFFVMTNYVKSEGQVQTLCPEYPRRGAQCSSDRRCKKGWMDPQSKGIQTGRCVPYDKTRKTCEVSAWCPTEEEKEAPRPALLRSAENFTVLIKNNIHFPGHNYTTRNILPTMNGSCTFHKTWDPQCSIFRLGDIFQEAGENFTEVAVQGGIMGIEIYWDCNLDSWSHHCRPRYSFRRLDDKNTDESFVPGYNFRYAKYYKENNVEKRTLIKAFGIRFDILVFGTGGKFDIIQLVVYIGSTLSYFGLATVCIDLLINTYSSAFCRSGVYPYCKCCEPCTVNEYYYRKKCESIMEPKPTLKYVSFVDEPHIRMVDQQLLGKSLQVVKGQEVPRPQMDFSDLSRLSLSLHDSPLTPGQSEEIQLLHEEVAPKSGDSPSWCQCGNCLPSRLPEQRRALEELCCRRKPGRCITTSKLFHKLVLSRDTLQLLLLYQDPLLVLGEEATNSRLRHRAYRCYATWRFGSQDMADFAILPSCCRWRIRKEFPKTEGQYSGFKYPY
As to the kind of experiment: Screen Quest Fluo-8 No Wash Calcium Assay (Bz-ATP evoked Ca2+ influx, FLIPR). Type of experiment: cell-based. The following applies: mP2X7; HEK-293 cells stably transfected with P2X7 receptor, Bz-ATP at EC80, Fluo-8 NW; potency ranges A-D. The procedure, abridged:
(§1)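 Compounds were added to Fluo-8-loaded P2X7-transfected HEK-293 cells 5 min before an EC80 Bz-ATP challenge, and Ca2+ influx was then recorded for 3 min. Buffer held 0.3 mM Ca2+ and no Mg2+. Inhibition was normalised to A438079, giving IC50 values.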

Experiment [2] addresses T2, P2X7 receptor (Rattus norvegicus, UniProt Q64663).
T2 construct: rP2X7 (IC50; nM); other: rP2X7; HEK-293 cells stably transfected with P2X7 receptor, Bz-ATP at EC80, Fluo-8 NW; potency
T2 sequence (Q64663 1-595): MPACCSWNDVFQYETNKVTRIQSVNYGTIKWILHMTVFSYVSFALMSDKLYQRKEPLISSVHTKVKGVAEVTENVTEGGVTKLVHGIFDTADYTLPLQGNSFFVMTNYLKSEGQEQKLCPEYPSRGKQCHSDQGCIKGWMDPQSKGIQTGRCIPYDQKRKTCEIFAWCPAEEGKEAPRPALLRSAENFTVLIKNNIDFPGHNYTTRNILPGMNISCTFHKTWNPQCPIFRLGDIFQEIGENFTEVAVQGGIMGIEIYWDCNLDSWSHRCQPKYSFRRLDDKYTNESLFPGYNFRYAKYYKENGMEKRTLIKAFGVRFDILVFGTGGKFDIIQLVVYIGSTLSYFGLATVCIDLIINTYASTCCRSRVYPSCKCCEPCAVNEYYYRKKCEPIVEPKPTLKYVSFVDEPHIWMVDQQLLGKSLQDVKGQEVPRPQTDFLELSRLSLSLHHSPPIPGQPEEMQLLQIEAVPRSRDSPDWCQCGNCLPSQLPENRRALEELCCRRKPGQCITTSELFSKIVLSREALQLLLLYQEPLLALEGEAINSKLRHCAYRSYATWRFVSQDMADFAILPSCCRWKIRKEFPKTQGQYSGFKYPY
Described as above. Type of experiment: cell-based. The note with it: rP2X7; HEK-293 cells stably transfected with P2X7 receptor, Bz-ATP at EC80, Fluo-8 NW; potency ranges A-D. In a few lines:
as §1

A word on the IC50: it is the concentration at which inhibition is half-maximal. On to `O=c1onc(Cc2ccccc2C(F)(F)F)n1CC1CCCCC1` [Example 116, 4-(cyclohexylmethyl)-3-{[2-(trifluoromethyl)phenyl]methyl}-4,5-dihydro-1,2,4-oxadiazol-5-one], for which the concentration for half-maximal inhibition (IC50) lay in the range of 1000 to 10000 nM on P2X7 receptor [1] and 200 to 1000 nM on P2X7 receptor [2].

As for `O=c1onc(Cc2cccc(F)c2)n1Cc1c(F)cccc1Cl` [Example 81, 4-[(2-chloro-6-fluorophenyl)methyl]-3-[(3-fluorophenyl)methyl]-4,5-dihydro-1,2,4-oxadiazol-5-one], the IC50 at P2X7 receptor [1] lay within 1000 to 10000 nM; at P2X7 receptor [2] it was 200 to 1000 nM.

Consider `O=c1onc(Cc2c(F)cccc2Cl)n1CC1CCC(F)(F)CC1` [Example 84, 3-[(2-chloro-6-fluorophenyl)methyl]-4-[(4,4-difluorocyclohexyl)methyl]-4,5-dihydro-1,2,4-oxadiazol-5-one], for which the IC50 on P2X7 receptor [1] and at P2X7 receptor [2] was less than 200 nM in each case.

Regarding `O=c1onc(Cc2ccccc2Cl)n1CC1CCCCC1` [Example 117, 3-[(2-chlorophenyl)methyl]-4-(cyclohexylmethyl)-4,5-dihydro-1,2,4-oxadiazol-5-one], the concentration for half-maximal inhibition (IC50) at P2X7 receptor [1] is 200 to 1000 nM; on P2X7 receptor [2], less than 200 nM.

Consider `Cc1noc(C)c1Cc1noc(=O)n1CC1CCCCC1` [Example 210, 4-(cyclohexylmethyl)-3-[(dimethyl-1,2-oxazol-4-yl)methyl]-4,5-dihydro-1,2,4-oxadiazol-5-one], for which the IC50 at P2X7 receptor [1] was 1000 to 10000 nM; at P2X7 receptor [2] it was 200 to 1000 nM.

As to `O=c1snc(Cc2c(F)cccc2Cl)n1CC1CCC(F)(F)CC1` [Example 141, 3-[(2-chloro-6-fluorophenyl)methyl]-4-[(4,4-difluorocyclohexyl)methyl]-4,5-dihydro-1,2,4-thiadiazol-5-one], the IC50 at P2X7 receptor [1] and at P2X7 receptor [2] was less than 200 nM throughout.

`O=c1onc(Cc2ccccc2Cl)n1Cc1ccc(F)cc1` [Example 76, 3-[(2-chlorophenyl)methyl]-4-[(4-fluorophenyl)methyl]-4,5-dihydro-1,2,4-oxadiazol-5-one]: the half-inhibitory concentration (IC50) was in the range of 1000 to 10000 nM at P2X7 receptor [1] and 200 to 1000 nM at P2X7 receptor [2].

Take `O=c1onc(Cc2cccc(Cl)c2Cl)n1CC1CCCCC1` [Example 115, 4-(cyclohexylmethyl)-3-[(2,3-dichlorophenyl)methyl]-4,5-dihydro-1,2,4-oxadiazol-5-one]: the results for the IC50 on P2X7 receptor [1] and at P2X7 receptor [2] were 1000 to 10000 nM and 200 to 1000 nM, respectively.

With `O=c1onc(Cc2c(F)cccc2Cl)n1Cc1cccc(F)c1` [Example 26, 3-[(2-chloro-6-fluorophenyl)methyl]-4-[(3-fluorophenyl)methyl]-4,5-dihydro-1,2,4-oxadiazol-5-one], the results for the IC50 on P2X7 receptor [1] and on P2X7 receptor [2] were 200 to 1000 nM and less than 200 nM, respectively.

Turning to `O=c1onc(CC2CCC(F)(F)CC2)n1Cc1c(F)cccc1Cl` [Example 132, 4-[(2-chloro-6-fluorophenyl)methyl]-3-[(4,4-difluorocyclohexyl)methyl]-4,5-dihydro-1,2,4-oxadiazol-5-one], the IC50 on P2X7 receptor [1] and on P2X7 receptor [2] was less than 200 nM in each case.

With `O=c1onc(Cc2c(F)cccc2Cl)n1CC1CC2CCC1C2` (stereo not shown) [Example 88, 4-{bicyclo[2.2.1]heptan-2-ylmethyl}-3-[(2-chloro-6-fluorophenyl)methyl]-4,5-dihydro-1,2,4-oxadiazol-5-one], the IC50 at P2X7 receptor [1] was 200 to 1000 nM; at P2X7 receptor [2] it was less than 200 nM.

In the case of `O=c1onc(Cc2cccc(Cl)c2Cl)n1Cc1ccc(F)cc1` [Example 71, 3-[(2,3-dichlorophenyl)methyl]-4-[(4-fluorophenyl)methyl]-4,5-dihydro-1,2,4-oxadiazol-5-one], the IC50 at P2X7 receptor [1] and at P2X7 receptor [2] was 1000 to 10000 nM in each case.

Consider `O=c1onc(Cc2c(F)cccc2Cl)n1CC1CCCCCC1` [Example 92, 3-[(2-chloro-6-fluorophenyl)methyl]-4-(cycloheptylmethyl)-4,5-dihydro-1,2,4-oxadiazol-5-one], for which the IC50 on P2X7 receptor [1] was 200 to 1000 nM; at P2X7 receptor [2], less than 200 nM.

As for `O=c1onc(Cc2ccc(F)cc2)n1Cc1c(F)cccc1Cl` [Example 1, 4-[(2-chloro-6-fluorophenyl)methyl]-3-[(4-fluorophenyl)methyl]-4,5-dihydro-1,2,4-oxadiazol-5-one], the values for the IC50 at P2X7 receptor [1] and on P2X7 receptor [2] were 1000 to 10000 nM and 200 to 1000 nM, respectively.

As to `O=c1onc(Cc2c(F)cccc2Cl)n1Cc1ccc(F)cc1F` [Example 61, 3-[(2-chloro-6-fluorophenyl)methyl]-4-[(2,4-difluorophenyl)methyl]-4,5-dihydro-1,2,4-oxadiazol-5-one], the 50% inhibitory concentration (IC50) at P2X7 receptor [1] was in the range of 1000 to 10000 nM; on P2X7 receptor [2] it was 200 to 1000 nM.

Turning to `CC1(C)CCC(Cn2c(Cc3c(F)cccc3Cl)noc2=O)CC1` [Example 86, 3-[(2-chloro-6-fluorophenyl)methyl]-4-[(4,4-dimethylcyclohexyl)methyl]-4,5-dihydro-1,2,4-oxadiazol-5-one], the IC50 on P2X7 receptor [1] and at P2X7 receptor [2] was 200 to 1000 nM in each case.

In the case of `O=c1onc(Cc2c(F)cccc2Cl)n1Cc1ccc(F)cc1` [Example 55, 3-[(2-chloro-6-fluorophenyl)methyl]-4-[(4-fluorophenyl)methyl]-4,5-dihydro-1,2,4-oxadiazol-5-one], the IC50 at P2X7 receptor [1] and at P2X7 receptor [2] was 200 to 1000 nM each time.

Take `O=c1onc(Cc2c(F)cccc2Cl)n1CC1CCCCO1` (stereo not shown) [Example 94, 3-[(2-chloro-6-fluorophenyl)methyl]-4-(oxan-2-ylmethyl)-4,5-dihydro-1,2,4-oxadiazol-5-one]: the IC50 at P2X7 receptor [1] was 1000 to 10000 nM; at P2X7 receptor [2], 200 to 1000 nM.

For `O=c1onc(Cc2c(F)cccc2Cl)n1CC1CCCCC1` [Example 82, 3-[(2-chloro-6-fluorophenyl)methyl]-4-(cyclohexylmethyl)-4,5-dihydro-1,2,4-oxadiazol-5-one], the IC50 on P2X7 receptor [1] and at P2X7 receptor [2] was less than 200 nM each time.

`O=c1onc(Cc2c(F)cccc2Cl)n1CC1CCCCC1(F)F` (stereo not shown) [Example 97, 3-[(2-chloro-6-fluorophenyl)methyl]-4-[(2,2-difluorocyclohexyl)methyl]-4,5-dihydro-1,2,4-oxadiazol-5-one]: the IC50 on P2X7 receptor [1] was 200 to 1000 nM; at P2X7 receptor [2] it was less than 200 nM.

For the compound `O=c1onc(CC2CCCCC2)n1Cc1c(F)cccc1Cl` [Example 130, 4-[(2-chloro-6-fluorophenyl)methyl]-3-(cyclohexylmethyl)-4,5-dihydro-1,2,4-oxadiazol-5-one], the half-inhibitory concentration (IC50) at P2X7 receptor [1] was 200 to 1000 nM; on P2X7 receptor [2], less than 200 nM.

On to `O=c1onc(Cc2c(F)cccc2Cl)n1CC1(F)CCCCC1` [Example 96, 3-[(2-chloro-6-fluorophenyl)methyl]-4-[(1-fluorocyclohexyl)methyl]-4,5-dihydro-1,2,4-oxadiazol-5-one], for which the IC50 at P2X7 receptor [1] and on P2X7 receptor [2] was 200 to 1000 nM in each case.

In the case of `CC(c1ccc(F)cc1)n1c(Cc2c(F)cccc2Cl)noc1=O` (stereo not shown) [Example 48, 3-[(2-chloro-6-fluorophenyl)methyl]-4-[1-(4-fluorophenyl)ethyl]-4,5-dihydro-1,2,4-oxadiazol-5-one], the half-maximal inhibitory concentration (IC50) at P2X7 receptor [1] and on P2X7 receptor [2] was 200 to 1000 nM in each case.

On to `O=c1onc(Cc2c(F)cccc2Cl)n1Cc1ccc(C(F)(F)F)o1` [Example 66, 3-[(2-chloro-6-fluorophenyl)methyl]-4-{[5-(trifluoromethyl)furan-2-yl]methyl}-4,5-dihydro-1,2,4-oxadiazol-5-one], for which the values for the IC50 on P2X7 receptor [1] and on P2X7 receptor [2] were 1000 to 10000 nM and 200 to 1000 nM, respectively.

Regarding `O=c1onc(Cc2c(F)cccc2Cl)n1CCC1CCCCC1` [Example 142, 3-(2-chloro-6-fluorobenzyl)-4-(2-cyclohexylethyl)-1,2,4-oxadiazol-5(4H)-one], the concentration for half-maximal inhibition (IC50) on P2X7 receptor [1] and at P2X7 receptor [2] was 200 to 1000 nM throughout.

For the compound `O=c1snc(Cc2c(F)cccc2Cl)n1CC1CCCCC1` [Example 140, 3-[(2-chloro-6-fluorophenyl)methyl]-4-(cyclohexylmethyl)-4,5-dihydro-1,2,4-thiadiazol-5-one], the IC50 at P2X7 receptor [1] is 1000 to 10000 nM; on P2X7 receptor [2], 200 to 1000 nM.
